Assay results: patent publication US5869675A, “Lactacystin derivatives” (The Kitasato Institute, priority 1994, dated 1999)
Like-named read-outs stand apart in the source and are kept apart here.

How the values were obtained:
[1] = Cytotoxic action on Neuro 2A cells; type: cell-based; conditions: mouse, no attached cells observed in more than 2/3 of the whole cells, read-out: Cytotoxicity (B)
Protocol: (§1) Morphological changes of Neuro 2A cells are observed according to the method of Baglioni et al. [J. Biol. Chem., 266: 18620 (1991)].
Neuro 2A cells were plated at a density of 1×10^4 cells/cm^2 in a 24-hole plate, and cultured in MEM-H with 10% FBS. On the next day, lactacystin or lactacystin derivatives were added at the concentration of 0.05-100 μM, and morphological changes of the cells with time were observed by phase contrast microscopy.

[2] = test system: Neuro 2A cells; experiment: Selective toxicity (ratio of cytotoxicity/minimum effective dose); type: cell-based, mouse
Text: 2. No specific test method for selective toxicity of the compounds is known, therefore the selective toxicity is defined as the ratio of cytotoxicity/minimum effective dose.

[3] = test system: Neuro 2A cells; experiment: Activity of neuritogenesis (bipolar outgrowth of neurites) in Neuro 2A cells, minimum effective dose; type: cell-based, mouse; conditions: for minimal effective concentration: Mus musculus, N2a, read-out: Minimum effective dose (A)
Protocol: as §1
Neuro 2A cells were plated at a density of 1×10^4 cells/cm^2 in a 24-hole plate, and cultured in MEM-H with 10% FBS.

[4] = test system: intracelluar cAMP level in Neuro 2A; experiment: Transient increase in the intracellular cAMP level in mouse neuroblastoma cell line Neuro 2A; type: cell-based
[5] = cited from earlier work
[6] = Neuro 2A cells, concentration in which approximately 20% of whole cells showed bipolar outgrowth of neurites

SMILES | MCC [1] | Selective toxicity (B/A) [2] | minimal effective concentration [3, 6] | intracelluar cAMP level [4] | cytotoxicity ([5]; known compound) | neuritogenesis activity ([5]; known from literature) | neuritogenesis ([3]; mouse neuroblastoma cell line Neuro 2A) | minimal effective concentration [3]
CC(C)[C@H](O)[C@@]1(C(=O)Sc2ccc(O)cc2)NC(=O)[C@H](C)[C@@H]1O [Example 16, 3-hydroxy-2-(1-hydroxy-2-methylpropyl)-4-methyl-5-oxo-2-pyrrolidine-4-hydroxyphenylthiocarboxylate] | 12.5 µM | 31 | 0.4 µM |  |  |  |  | 
CC(=O)N[C@@H](CSC(=O)[C@]1([C@@H](O)C(C)C)NC(=O)[C@H](C)[C@@H]1O)C(=O)O [lactacystin] |  |  |  | cause a transient increase in the intracelluar cAMP level | highly cytotoxic | having neuritogenesis activity | induce neuritogenesis | 
CC(C)[C@H](O)[C@@]1(C(=O)SCCC(=O)O)NC(=O)[C@H](C)[C@@H]1O [Example 2, des-N-acetylaminolactacystin] | 1.56 µM | 8 | 0.2 µM |  |  |  |  | 
CC(C)[C@H](O)[C@@]1(C(=O)Sc2ccccn2)NC(=O)[C@H](C)[C@@H]1O [Example 22, 3-hydroxy-2-(1-hydroxy-2-methylpropyl)-4-methyl-5-oxo-2-pyrrolidine-2-pyridylthiocarboxylate] | 12.5 µM | 16 | 0.8 µM |  |  |  |  | 
CNCCSC(=O)[C@]1([C@@H](O)C(C)C)NC(=O)[C@H](C)[C@@H]1O [Example 17, 3-hydroxy-2-(1-hydroxy-2-methylpropyl)-4-methyl-5-oxo-2-pyrrolidine-2-N-methylethanethiocarboxylate] | 6.25 µM | 8 | 0.8 µM |  |  |  |  | 
C=CCOC(=O)[C@H](CSC(=O)[C@]1([C@@H](O)C(C)C)NC(=O)[C@H](C)[C@@H]1O)NC(C)=O [Example 6, lactacystin allyl ester] | 6.25 µM | 31 | 0.2 µM |  |  |  |  | 
COC(=O)CCSC(=O)[C@]1([C@@H](O)C(C)C)NC(=O)[C@H](C)[C@@H]1O [Example 21, 3-hydroxy-2-(1-hydroxy-2-methylpropyl)-4-methyl-5-oxo-2-pyrrolidine-methoxycarbonylethylthiocarboxylate] | 1.56 µM | 8 | 0.2 µM |  |  |  |  | 
CCSC(=O)[C@]1([C@@H](O)C(C)C)NC(=O)[C@H](C)[C@@H]1O [Example 7, 3-hydroxy-2-(1-hydroxy-2-methylpropyl)-4-methyl-5-oxo-2-pyrrolidine-ethanethiocarboxylate] | 1.56 µM | 8 | 0.2 µM |  |  |  |  | 
COC(=O)[C@H](CSC(=O)[C@]1([C@@H](O)C(C)C)NC(=O)[C@H](C)[C@@H]1O)NC(C)=O [Example 5, lactacystin methyl ester] | 6.25 µM | 8 | 0.78 µM |  |  |  |  | 
CC(C)[C@H](O)[C@@]1(C(=O)Sc2ccccc2)NC(=O)[C@H](C)[C@@H]1O [Example 13, 3-hydroxy-2-(1-hydroxy-2-methylpropyl)-4-methyl-5-oxo-2-pyrrolidine-phenythiocarboxylate] | 12.5 µM | 16 |  |  |  |  |  | 0.8 µM
CC(C)[C@H](O)[C@@]1(C(=O)SCCN(C)C)NC(=O)[C@H](C)[C@@H]1O [Example 18, 3-hydroxy-2-(1-hydroxy-2-methylpropyl)-4-methyl-5-oxo-2-pyrrolidine-2-N-dimethyl-ethanethiocarboxylate] | 6.25 µM | 31 | 0.2 µM |  |  |  |  | 
CC(C)[C@H](O)[C@@]1(C(=O)SC[C@H](NC(=O)CC[C@H](N)C(=O)O)C(=O)NCC(=O)O)NC(=O)[C@H](C)[C@@H]1O [Example 26, glutathione-3-hydroxy-2-(1-hydroxy-2-methylpropyl)-4-methyl-5-oxo-2-pyrrolidinethiocarboxylate] | 25 µM | 31 | 0.8 µM |  |  |  |  | 
CC(C)[C@H](O)[C@@]1(C(=O)SCC(=O)O)NC(=O)[C@H](C)[C@@H]1O [Example 19, 3-hydroxy-2-(1-hydroxy-2-methylpropyl)-4-methyl-5-oxo-2-pyrrolidine-1-carboxymethylthiocarboxylate] | 12.5 µM | 31 | 0.4 µM |  |  |  |  | 
CC(C)[C@H](O)[C@@]1(C(=O)SCCN)NC(=O)[C@H](C)[C@@H]1O [Example 4, des-N-acetyldescarboxylactacystin] | 25 µM | 8 | 3.12 µM |  |  |  |  | 
CCCSC(=O)[C@]1([C@@H](O)C(C)C)NC(=O)[C@H](C)[C@@H]1O [Example 8] | 3.12 µM | 16 | 0.2 µM |  |  |  |  | 
CC(C)[C@H](O)[C@@]1(C(=O)SCCCO)NC(=O)[C@H](C)[C@@H]1O [Example 15, 3-hydroxy-2-(1-hydroxy-2-methylpropyl)-4-methyl-5-oxo-2-pyrrolidine-3-hydroxypropanethiocarboxylate] | 12.5 µM | 31 | 0.4 µM |  |  |  |  | 
COC(=O)CSC(=O)[C@]1([C@@H](O)C(C)C)NC(=O)[C@H](C)[C@@H]1O [Example 20, 3-hydroxy-2-(1-hydroxy-2-methylpropyl)-4-methyl-5-oxo-2-pyrrolidine-methoxycarbonylthiocarboxylate] | 12.5 µM | 16 | 0.8 µM |  |  |  |  | 
CC(C)SC(=O)[C@]1([C@@H](O)C(C)C)NC(=O)[C@H](C)[C@@H]1O [Example 9, 3-hydroxy-2-(1-hydroxy-2-methylpropyl)-4-methyl-5-oxo-2-pyrrolidine-iso-propanethiocarboxylate] | 12.5 µM | 31 | 0.4 µM |  |  |  |  | 
CC(SC(=O)[C@]1([C@@H](O)C(C)C)NC(=O)[C@H](C)[C@@H]1O)C(=O)NCC(=O)O (stereo partly shown) [Example 25, 2-S-propionylglycine-3-hydroxy-2-(1-hydroxy-2-methylpropyl)-4-methyl-5-oxo-2-pyrrolidinecarboxylate] | 12.5 µM | 8 | 1.56 µM |  |  |  |  | 
CCOC(=O)CCSC(=O)[C@]1([C@@H](O)C(C)C)NC(=O)[C@H](C)[C@@H]1O [Example 3, des-N-acetylaminolactacystin ethyl ester] | 3.12 µM | 16 | 0.2 µM |  |  |  |  | 
CCCCSC(=O)[C@]1([C@@H](O)C(C)C)NC(=O)[C@H](C)[C@@H]1O [Example 10, 3-hydroxy-2-(1-hydroxy-2-methylpropyl)-4-methyl-5-oxo-2-pyrrolidine-butanethiocarboxylate] | 12.5 µM | 31 | 0.4 µM |  |  |  |  | 
COC(=O)[C@]1([C@@H](O)C(C)C)NC(=O)[C@H](C)[C@@H]1O [Example 1, .tau.-lactam methyl ester] | 12.5 µM | 8 | 1.56 µM |  |  |  |  | 
CCCCCSC(=O)[C@]1([C@@H](O)C(C)C)NC(=O)[C@H](C)[C@@H]1O [Example 12, 3-hydroxy-2-(1-hydroxy-2-methylpropyl)-4-methyl-5-oxo-2-pyrrolidine-1-pentanethiocarboxylate] | 12.5 µM | 16 | 0.8 µM |  |  |  |  | 
CC(C)[C@H](O)[C@@]1(C(=O)SCCO)NC(=O)[C@H](C)[C@@H]1O [Example 14, 3-hydroxy-2-(1-hydroxy-2-methylpropyl)-4-methyl-5-oxo-2-pyrrolidine-2-hydroxyethanethiocarboxylate] | 25 µM | 8 | 3.12 µM |  |  |  |  | 
CC(C)[C@H](O)[C@@]1(C(=O)SCCC(N)C(=O)O)NC(=O)[C@H](C)[C@@H]1O (stereo partly shown) [Example 24] | 25 µM | 16 | 1.56 µM |  |  |  |  | 
CC(C)[C@H](O)[C@@]1(C(=O)Sc2ccncc2)NC(=O)[C@H](C)[C@@H]1O [Example 23, 3-hydroxy-2-(1-hydroxy-2-methylpropyl)-4-methyl-5-oxo-2-pyrrolidine-4-pyridylthiocarboxylate] | 12.5 µM | 16 | 0.8 µM |  |  |  |  | 
CCC(C)SC(=O)[C@]1([C@@H](O)C(C)C)NC(=O)[C@H](C)[C@@H]1O (stereo partly shown) [Example 11, 3-hydroxy-2-(1-hydroxy-2-methylpropyl)-4-methyl-5-oxo-2-pyrrolidine-1-methyl-1-propanethiocarboxylate] | 12.5 µM | 31 | 0.4 µM |  |  |  |  | 
